Results: publication PMC6179058, “Design, synthesis, and biological evaluation of novel iso-flavones derivatives as H3R antagonists” (Journal of Enzyme Inhibition and Medicinal Chemistry, 2018)

Target: T1, human H3R (histamine receptor 3) (Homo sapiens, UniProt Q9Y5N1)
T1 construct: gene HRH3; human H3R fused via TEV protease site to Gal4-VP16 transcription factor; stably expressed in H3-bla U2OS cells (Invitrogen) with beta-arrestin/TEV protease fusion and UAS beta-lactamase reporter
Assay: beta-arrestin/TEV beta-lactamase FRET reporter assay, antagonist mode
Assay type: cell-based
Conditions: read-out: Inhibit rate (%) at 10 μM
From the text: beta-arrestin/TEV beta-lactamase FRET reporter assay, antagonist mode on human H3R (histamine receptor 3)

T1 sequence (Q9Y5N1 whole entry, the tested form may be a part): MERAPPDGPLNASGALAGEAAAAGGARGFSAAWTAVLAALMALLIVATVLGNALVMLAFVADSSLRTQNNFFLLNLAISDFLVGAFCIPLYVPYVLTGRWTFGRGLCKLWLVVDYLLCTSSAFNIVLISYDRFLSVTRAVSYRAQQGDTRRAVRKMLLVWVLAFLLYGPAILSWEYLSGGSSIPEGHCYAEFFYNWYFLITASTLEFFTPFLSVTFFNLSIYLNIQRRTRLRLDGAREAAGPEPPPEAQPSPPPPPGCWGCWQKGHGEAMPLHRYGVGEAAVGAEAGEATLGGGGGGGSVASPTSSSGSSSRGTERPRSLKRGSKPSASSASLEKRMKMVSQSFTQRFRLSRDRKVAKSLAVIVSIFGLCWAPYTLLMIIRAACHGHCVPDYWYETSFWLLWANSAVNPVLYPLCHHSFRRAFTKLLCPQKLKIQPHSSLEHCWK

SMILES | inhibition at 10 µM
COc1ccc(-c2coc3c(CN4CCCC4)c(O)ccc3c2=O)cc1 [2m, 7-hydroxy-3-(4-methoxyphenyl)-8-(pyrrolidin-1-ylmethyl)-4H-chromen-4-one] | 14.6%
O=c1c(-c2ccc(O)cc2)coc2c(CN3CCCC3)c(O)ccc12 [2f, 7-hydroxy-3-(4-hydroxyphenyl)-8-(pyrrolidin-1-ylmethyl)-4H-chromen-4-one] | 18.7%
